Laboratory results taken from patent publication US20120321579A1, “SURFACTANT COMPOSITIONS” (ANTERIOS, INC., priority 2011, published 2012).

Tested on: Axillary Sweating
Assay: Clinical study to evaluate effect of Polysorbate 80 on axillary sweating (gravimetric sweat measurement)
Assay type: in vivo, human

With Polysorbate 80 the “conclusion on activity in reducing sweat production” value (conclusion from the clinical study) was “biologically active in reducing sweat production”, the “reduction in sweat production (average) as measured by gravimetric sweat measurement” value (two weeks after a single topical treatment, 14.34 mg Polysorbate 80 per axilla (0.3 mL/axilla), subjects with moderate to severe primary axillary hyperhidrosis, 5 minute collection) was 159 mg and the “greater reduction in sweat production than the subjects in the control group (placebo, water)” value (two weeks after a single topical treatment, 14.34 mg per axilla, 159 mg versus 53 mg placebo) was 300%. For the same substance, the “percent of subjects with at least a 30% reduction in sweat production when compared to levels at the Baseline visit” value (two weeks after a single topical treatment, 14.34 mg per axilla, gravimetric sweat measurement) was 80% and the “greater effectiveness in reducing sweat production than subjects treated with placebo (responder assessment)” value (two weeks after a single topical treatment, 80% versus 29% of subjects with at least a 30% reduction) was 280%.
